In patent US9393221B2, “Methods and compounds for reducing intracellular lipid storage” (THE GENERAL HOSPITAL CORPORATION, priority 2011, dated 2016):
Counter-ions that a name gives are not always drawn.

What follows are compounds tested on ATGL-KO iPSCs (assay: High throughput iPSC chemical screening, Oil Red O (ORO) lipid accumulation). Settings: normalized ORO level vs DMSO-treated cells; compound present during 7 days differentiation, 96-well; negative = decrease in lipid accumulation.
Assay type: cell-based, mouse
Note: test concentration or dose not given here.

Row | SMILES | Z-score
1 | C[C@]12CC[C@H]3[C@@H](CCC4=CC(=O)CC[C@@]43C)[C@@H]1CC[C@@H]2C(=O)CO [Deoxycorticosterone] | 0.6523
2 | Cc1cc(N)c2ccccc2[n+]1CCCCCCCCCC[n+]1c(C)cc(N)c2ccccc21 [Dequalinium dichloride] | 42.6725
3 | CNCCCN1c2ccccc2CCc2ccccc21 [Desipramine hydrochloride] | 0.2168
4 | CC(=O)OCC(=O)[C@@]1(O)[C@H](C)C[C@H]2[C@@H]3CCC4=CC(=O)C=C[C@]4(C)[C@@]3(F)[C@@H](O)C[C@@]21C [Dexamethasone acetate] | −1.3076
5 | CC1=NS(=O)(=O)c2cc(Cl)ccc2N1 [Diazoxide] | 0.5969
6 | CCCCOc1cc(C(=O)NCCN(CC)CC)c2ccccc2n1 [Dibucaine] | 0.2274
7 | NS(=O)(=O)c1cc(Cl)c(Cl)c(S(N)(=O)=O)c1 [Dichlorphenamide] | 0.1624
8 | O=C(O)Cc1ccccc1Nc1c(Cl)cccc1Cl [Diclofenac sodium] | −1.137
9 | Cc1onc(-c2c(Cl)cccc2Cl)c1C(=O)N[C@@H]1C(=O)N2[C@@H]1SC(C)(C)[C@@H]2C(=O)O [Dicloxacillin sodium salt] | −0.1893
10 | O=c1oc2ccccc2c(O)c1Cc1c(O)c2ccccc2oc1=O [Dicumarol] | 1.966
11 | CCN(CC)CCOC(=O)C1(C2CCCCC2)CCCCC1 [Dicyclomine hydrochloride, reference compound] | −2.1533
12 | C/C=C(/C(=C/C)c1ccc(O)cc1)c1ccc(O)cc1 [Dienestrol] | 0.1268
13 | CCN(CC)C(=O)N1CCN(C)CC1 [Diethylcarbamazine citrate] | −1.1872
14 | CC/C(=C(/CC)c1ccc(O)cc1)c1ccc(O)cc1 [Diethylstilbestrol] | −0.977
15 | CC(=O)OCC(=O)[C@@]1(OC(C)=O)[C@@H](C)C[C@H]2[C@@H]3C[C@H](F)C4=CC(=O)C=C[C@]4(C)[C@@]3(F)[C@@H](O)C[C@@]21C [Diflorasone Diacetate] | 0.6842
16 | O=C(O)c1cc(-c2ccc(F)cc2F)ccc1O [Diflunisal] | −0.3972
17 | C[C@]12CC[C@H](O)C[C@H]1CC[C@@H]1[C@@H]2CC[C@]2(C)[C@@H](C3=CC(=O)OC3)CC[C@]12O [Digitoxigenin] | −0.9264
18 | C[C@]12CC[C@H](O)C[C@H]1CC[C@@H]1[C@@H]2C[C@@H](O)[C@]2(C)[C@@H](C3=CC(=O)OC3)CC[C@]12O [Digoxigenin] | −1.0521
19 | C[C@H]1O[C@@H](O[C@H]2[C@@H](O)C[C@H](O[C@H]3[C@@H](O)C[C@H](O[C@H]4CC[C@@]5(C)[C@H](CC[C@@H]6[C@@H]5C[C@@H](O)[C@]5(C)[C@@H](C7=CC(=O)OC7)CC[C@]65O)C4)O[C@@H]3C)O[C@@H]2C)C[C@H](O)[C@@H]1O [Digoxin] | −0.815
20 | CC(C)[C@@]1(NC(=O)[C@@H]2C[C@@H]3c4cccc5[nH]cc(c45)C[C@H]3N(C)C2)O[C@@]2(O)[C@@H]3CCCN3C(=O)[C@H](Cc3ccccc3)N2C1=O [Dihydroergocristine mesylate] | 0.9157
21 | CN[C@@H]1[C@H](O[C@H]2[C@H](O[C@H]3[C@H](O)[C@@H](O)[C@H](NC(=N)N)[C@@H](O)[C@@H]3NC(=N)N)O[C@@H](C)[C@]2(O)CO)O[C@@H](CO)[C@H](O)[C@H]1O [Dihydrostreptomycin sulfate] | 1.253
22 | COc1cc(C(=O)OCCCN2CCCN(CCCOC(=O)c3cc(OC)c(OC)c(OC)c3)CC2)cc(OC)c1OC [Dilazep dihydrochloride] | 0.1967
23 | CN(C(=O)C(Cl)Cl)c1ccc(OC(=O)c2ccco2)cc1 [Diloxanide furoate] | −0.9785
24 | COc1ccc([C@@H]2Sc3ccccc3N(CCN(C)C)C(=O)[C@@H]2OC(C)=O)cc1 [Diltiazem hydrochloride] | −0.974
25 | CN(C)CCCSC(=N)N [Dimaprit dihydrochloride] | −1.2574
26 | CN(C)CCOC(c1ccccc1)c1ccccc1.Cn1c(=O)c2[nH]c(Cl)nc2n(C)c1=O [Dimenhydrinate] | −0.7776

Row | SMILES | Z-score
27 | CC1(C)OC(=O)NC1=O [Dimethadione] | −0.9493
28 | CCCCc1cc2ccccc2c(OCCN(C)C)n1 [Dimethisoquin hydrochloride] | 0.4631
29 | CCCCC[C@H](O)/C=C/[C@@H]1[C@@H](C/C=C\CCCC(=O)O)[C@@H](O)C[C@H]1O [Dinoprost trometamol] | 0.7612
30 | COc1ccc(C(=O)c2ccccc2O)c(O)c1 [Dioxybenzone] | −1.6584
31 | O=C(Nc1ccccc1)OCC(CN1CCCCC1)OC(=O)Nc1ccccc1 (stereo not shown) [Diperodon hydrochloride] | −0.6048
32 | C[N+]1(C)CCC(=C(c2ccccc2)c2ccccc2)CC1 [Diphemanil methylsulfate] | 0.6045
33 | CN(C)CCOC(c1ccccc1)c1ccccc1 [Diphenhydramine hydrochloride] | 1.308
34 | OC(CCCN1CCCCC1)(c1ccccc1)c1ccccc1 [Diphenidol hydrochloride] | −0.7294
35 | CN1CCC(OC(c2ccccc2)c2ccccc2)CC1 [Diphenylpyraline hydrochloride] | 0.246
36 | CNCC(O)c1ccc(OC(=O)C(C)(C)C)c(OC(=O)C(C)(C)C)c1 (stereo not shown) [Dipivefrin hydrochloride] | 1.363
37 | Cn1c(=O)c2c(ncn2CC(O)CO)n(C)c1=O (stereo not shown) [Diprophylline] | −0.3767
38 | OCCN(CCO)c1nc(N2CCCCC2)c2nc(N(CCO)CCO)nc(N3CCCCC3)c2n1 [Dipyridamole] | 0.4282
39 | Cc1c(N(C)CS(=O)(=O)[O-])c(=O)n(-c2ccccc2)n1C.[Na+] [Dipyrone] | 1.061
40 | CC(C)N(CCC(C(N)=O)(c1ccccc1)c1ccccn1)C(C)C (stereo not shown) [Disopyramide] | −1.1535
41 | CCN(CC)C(=S)SSC(=S)N(CC)CC [Disulfiram] | 15.5036
42 | C[C@]12N[C@H](Cc3ccccc31)c1ccccc12 [Dizocilpine maleate] | −1.1505
43 | CC(CCc1ccc(O)cc1)NCCc1ccc(O)c(O)c1 (stereo not shown) [Dobutamine hydrochloride] | −0.4732
44 | CCN[C@H]1C[C@H](C)S(=O)(=O)c2sc(S(N)(=O)=O)cc21 [Dorzolamide hydrochloride] | 1.587
45 | CN(C)CC/C=C1\c2ccccc2CSc2ccccc21 [Dosulepin hydrochloride] | 0.00689
46 | COc1cc2nc(N3CCN(C(=O)C4COc5ccccc5O4)CC3)nc(N)c2cc1OC (stereo not shown) [Doxazosin mesylate] | −1.0121
47 | CN(C)CCC=C1c2ccccc2COc2ccccc21 [Doxepin hydrochloride] | −1.0091
48 | COc1cccc2c1C(=O)c1c(O)c3c(c(O)c1C2=O)C[C@@](O)(C(=O)CO)C[C@@H]3O[C@H]1C[C@H](N)[C@H](O)[C@H](C)O1 [Doxorubicin hydrochloride] | 32.6438
49 | C[C@H]1c2cccc(O)c2C(=O)C2=C(O)[C@]3(O)C(=O)C(C(N)=O)=C(O)[C@@H](N(C)C)[C@@H]3[C@@H](O)[C@@H]21 [Doxycycline hydrochloride] | 2.356
50 | CN(C)CCOC(C)(c1ccccc1)c1ccccn1 (stereo not shown) [Doxylamine succinate] | 0.07172
51 | CCN(CC)CCOC(=O)C(c1ccccc1)C1CCCCC1 (stereo not shown) [Drofenine hydrochloride] | −0.0455
52 | O=C(CCCN1CC=C(n2c(=O)[nH]c3ccccc32)CC1)c1ccc(F)cc1 [Droperidol] | −0.5996
